Source: US8716493B2, “Multicyclic compounds and the use thereof” (Cephalon, Inc., priority 2000, dated 2014)

Experiments:
MLK3 = target: T1, MLK3 (Homo sapiens, UniProt Q16584); experiment: Measurement of MLK3 enzymatic activity (32P phosphorylation of myelin basic protein); format: biochemical; conditions: percent inhibition at 1 μM; Table 5
T1 construct: 2 μg/mL of baculoviral human GST-MLK1 kinase domain; GST (N); host or cells: baculovirus expression
Method: The activity assay for MLK3 was performed in Millipore Multiscreen plates. Each 50 μL assay mixture contained 50 mM HEPES (pH 7.0), 1 mM EGTA, 10 mM MgCl2, 1 mM DTT, 25 mM β-glycerophosphate, 100 μM ATP, 1 μCi [γ-^32P]ATP, 0.1% BSA, 500 μg/mL myelin basic protein, 2% DMSO, various concentrations of test compounds, and 2 μg/mL of baculoviral human GST-MLK1 kinase domain. Samples were incubated for 15 min at 37° C. The reaction was stopped by adding ice-cold 50% TCA and the proteins were allowed to precipitate for 30 min at 4° C.
(§1) Single-point inhibition data were calculated by comparing PARP, VEGFR2, or MLK3 activity in the presence of inhibitor to activity in the presence of DMSO only. Inhibition curves for compounds were generated by plotting percent inhibition versus log10 of the concentration of compound. IC50 values were calculated by nonlinear regression using the sigmoidal dose-response (variable slope) equation in GraphPad Prism as follows: y=bottom+(top−bottom)/(1+10^(log IC50^−x)*Hillslope) where y is the % activity at a given concentration of compound, x is the logarithm of the concentration of compound, bottom is the % inhibition at the lowest compound concentration tested, and top is the % inhibition at the highest compound concentration examined. The values for bottom and top were fixed at 0 and 100, respectively. IC50 values were reported as the average of at least three separate determinations.
(§2) For some compounds, inhibiting data is presented as percent inhibition at a specified concentration. Compounds are tabulated together with compound number, substituents, and enzyme inhibition data.

[1] = target: T2, human VEGFR2 cytoplasmic domain (Homo sapiens, UniProt P35968); experiment: Measurement of VEGFR2 kinase enzymatic activity (time-resolved fluorescence, PLC-γ/GST substrate); format: biochemical; conditions: Table 5; for VEGFR2 % @ 300 nM: percent inhibition at 300 nM
T2 construct: recombinant human baculovirus-expressed human VEGFR2 cytoplasmic domain; host or cells: baculovirus-expressed
T2 sequence (P35968 786-1356 limits assumed): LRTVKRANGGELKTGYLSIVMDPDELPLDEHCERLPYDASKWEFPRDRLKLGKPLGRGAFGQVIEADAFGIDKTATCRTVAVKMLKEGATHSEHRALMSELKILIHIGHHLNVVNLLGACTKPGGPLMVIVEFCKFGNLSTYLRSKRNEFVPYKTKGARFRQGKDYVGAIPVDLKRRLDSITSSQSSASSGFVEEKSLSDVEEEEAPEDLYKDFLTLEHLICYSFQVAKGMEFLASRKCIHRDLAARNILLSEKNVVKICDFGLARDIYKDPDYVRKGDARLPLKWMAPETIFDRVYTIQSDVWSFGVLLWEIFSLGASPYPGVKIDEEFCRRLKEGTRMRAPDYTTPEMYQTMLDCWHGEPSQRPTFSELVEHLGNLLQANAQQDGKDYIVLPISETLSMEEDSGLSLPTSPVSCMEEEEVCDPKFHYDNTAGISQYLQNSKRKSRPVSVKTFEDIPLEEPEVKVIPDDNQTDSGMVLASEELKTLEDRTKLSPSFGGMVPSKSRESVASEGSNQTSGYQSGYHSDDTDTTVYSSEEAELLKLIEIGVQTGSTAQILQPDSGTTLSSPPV
Method: A 96-well FluoroNUNC MaxiSorp plate was coated with 100 μL/well of recombinant human PLC-γ/GST substrate solution at a concentration of 40 μg/mL in Tris-buffered saline (TBS). The VEGFR2 activity was assayed in a 100 μL assay mixture containing 50 mM HEPES (pH 7.4), 30 μM ATP, 10 mM MnCl2, 0.1% BSA, 2% DMSO, and 150 ng/mL recombinant human baculovirus-expressed human VEGFR2 cytoplasmic domain (prephosphorylated for 60 min at 4° C. in the presence of 30 μM ATP and 10 mM MnCl2 prior to use). The kinase reaction was allowed to proceed at 37° C. for 15 min. The europium-labeled anti-phosphotyrosine detection antibody was added at 1:5000 dilution in block buffer (3% BSA in TBST). After 1 hour of incubation at 37° C., 100 μL of enhancement solution (Wallac #1244-105) was added and the plate was gently agitated. After 5 min, the time-resolved fluorescence of the resulting solution was measured using the BMG PolarStar (Model #403) using excitation and emission wavelengths of 340 nm and 615 nm, respectively, a collection delay of 400 μsec and an integration time of 400 μsec.
as §1
as §2, with “The following Examples 5 to 10 present PARP, VEGFR2, and MLK3 inhibiting data for compounds of the present invention. […] For” for “For”

[2] = system: rat model of focal cerebral ischemia; conditions: i.p. 10 mg/kg two hours prior to and two hours after initiation of ischemia; cited from earlier work
[3] = system: suture occlusion model of focal ischemia; conditions: rat; 10 mg/kg; cited from earlier work
[4] = system: mouse MCA occlusion (suture thread method); conditions: mice; intracerebroventricular administration; two hour MCA occlusion; cited from earlier work

T1 sequence (Q16584 117-379 limits assumed): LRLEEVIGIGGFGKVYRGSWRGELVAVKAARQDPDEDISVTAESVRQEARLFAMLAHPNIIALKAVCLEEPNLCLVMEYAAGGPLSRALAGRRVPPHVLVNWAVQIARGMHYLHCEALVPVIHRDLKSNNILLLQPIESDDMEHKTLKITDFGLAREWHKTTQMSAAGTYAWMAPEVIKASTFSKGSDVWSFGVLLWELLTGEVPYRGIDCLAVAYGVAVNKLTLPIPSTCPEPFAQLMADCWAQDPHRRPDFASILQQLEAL

| MLK3 % @ 1 μM (MLK3) | IC50 [1] | Compound | other results |
| --- | --- | --- | --- |
| 74% | 235 nM | O=C1NC(=O)c2c1c1cnccc1c1[nH]c3ccccc3c21 [Compound 12a] | – |
| – | – | O=C1NCCc2c(OCCCCN3CCCCC3)cccc21 [DPQ, 3,4-dihydro-5-[4-(1-piperidinyl)butoxy]-1(2H)-isoquinolinone] | reduction in infarct volume [2]: 54% |
| 35% | 166 nM | O=C1NC(=O)c2c1c1ccccc1c1[nH]c3ccccc3c21 [Compound 11e] | – |
| – | – | NC(=O)c1cccc(N)c1 [Compound 3-AB, 3-aminobenzamide] | infarct volume [3]: significantly reduced; decrease in infarct volume [4]: 47% |
| 52% | 778 nM | Cn1c2ccccc2c2c3c(c4c(c21)CCCC4)C(=O)NC3=O [Compound 11d] | – |
| 26% | 698 nM | O=C1NC(=O)c2c1c1c(c3[nH]c4ccccc4c23)CCCC1 [Compound 11b, 5,7,9,10,11,12-Hexahydrocyclohexano[a]pyrrolo[3,4-c]carbazole-5(6H), 7(8H)-dione] | – |

| Compound | MLK3 % @ 1 μM (MLK3) | IC50 [1] | other results |
| --- | --- | --- | --- |
| O=C1NC(=O)c2c1c1c(c3[nH]c4ccccc4c23)CCO1 [Compound 11f, 5,7,10,11-Tetrahydrofuran[a-3,2]pyrrolo[3,4-c]carbazole-5(6H), 7(9H)-dione] | 62% | – | VEGFR2 % @ 300 nM [1]: 3% |
| 9-Ethyl-8-propyl-5,7-dihydropyrrolo[3,4-c]carbazole-5(6H), 7(10H)-dione [Compound 11c] | 46% | – | VEGFR2 % @100 nM ([1]; percent inhibition at 100 nM): 0% @100 nM |
| O=C1NC(=O)c2c1c1occc1c1[nH]c3ccccc3c21 [Compound 11g, 5,7-Dihydrofuran[a-3,2]pyrrolo[3,4-c]carbazole-5(6H), 7(11H)-dione] | 16% | – | VEGFR2 % @ 300 nM [1]: 8% |
| O=C1NCc2c3c(c4[nH]c5ccccc5c4c21)CCC3 [Compound 11a, 5,7,8,9,10,11-Hexahydrocyclopent[a]pyrrolo[3,4-c]carbazole-5(6H)-one] | – | 477 nM | – |
